Results published in ChEMBL document CHEMBL5380843 (J Med Chem, 2023).

What was measured:
[1] = tested on: Human immunodeficiency virus 1; assay: Antiviral activity against wild type HIV-1 IIIB harboring reverse transcriptase Y181C mutant infected in human MT4 cells assessed as protection against virus-induced cytopathic effect incubated for 5 days by MTT assay; type: functional, organism-based; details: Human immunodeficiency virus 1, IIIB, MT4, 120 h
[2] = Selectivity index, ratio of CC50 for cytotoxicity against human MT4 cells to EC50 for antiviral activity against wild type HIV-1 IIIB infected in human MT4 cells; type: toxicity, cell-based; details: read-out: Ratio CC50/EC50
[3] = Acute toxicity in 12 hr fasted female CD-1(ICR) mouse assessed as pathological damage in kidney at 2 g/Kg, IG measured after 14 days by H and E staining based analysis; type: tissue-based; details: in vivo, po, 2000 mg/kg, 336 h, time 14 day
[4] = target: Cytochrome P450 2C19 (Homo sapiens, UniProt P33261); assay: Inhibition of CYP2C19 in human liver microsomes using S-mephenytoin as substrate incubated for 15 to 45 mins in presence of NADPH; type: ADME, Microsome
Cytochrome P450 2C19, sequence (P33261 whole entry): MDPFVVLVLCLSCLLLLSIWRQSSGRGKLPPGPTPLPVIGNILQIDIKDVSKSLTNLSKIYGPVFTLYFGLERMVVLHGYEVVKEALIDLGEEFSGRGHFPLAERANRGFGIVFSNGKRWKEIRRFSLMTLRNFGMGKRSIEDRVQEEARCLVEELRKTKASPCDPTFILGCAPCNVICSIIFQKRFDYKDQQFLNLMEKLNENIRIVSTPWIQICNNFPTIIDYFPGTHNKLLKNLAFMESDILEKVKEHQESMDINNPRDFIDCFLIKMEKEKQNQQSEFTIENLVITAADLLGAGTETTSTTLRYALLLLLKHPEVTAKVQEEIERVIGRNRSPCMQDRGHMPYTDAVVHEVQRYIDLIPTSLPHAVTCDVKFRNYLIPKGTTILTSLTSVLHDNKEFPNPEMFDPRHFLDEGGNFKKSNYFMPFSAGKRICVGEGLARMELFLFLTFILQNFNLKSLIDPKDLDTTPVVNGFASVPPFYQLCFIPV

[5] = Half life in Sprague-Dawley rat at 1 mg/kg, iv measured upto 24 hrs by LC-MS/MS analysis; type: ADME, organism-based; details: in vivo
[6] = target: Cytochrome P450 2C9 (Homo sapiens, UniProt P11712); assay: Inhibition of CYP2C9 in human liver microsomes using tolbutamide as substrate incubated for 15 to 45 mins in presence of NADPH
Cytochrome P450 2C9, sequence (P11712 whole entry): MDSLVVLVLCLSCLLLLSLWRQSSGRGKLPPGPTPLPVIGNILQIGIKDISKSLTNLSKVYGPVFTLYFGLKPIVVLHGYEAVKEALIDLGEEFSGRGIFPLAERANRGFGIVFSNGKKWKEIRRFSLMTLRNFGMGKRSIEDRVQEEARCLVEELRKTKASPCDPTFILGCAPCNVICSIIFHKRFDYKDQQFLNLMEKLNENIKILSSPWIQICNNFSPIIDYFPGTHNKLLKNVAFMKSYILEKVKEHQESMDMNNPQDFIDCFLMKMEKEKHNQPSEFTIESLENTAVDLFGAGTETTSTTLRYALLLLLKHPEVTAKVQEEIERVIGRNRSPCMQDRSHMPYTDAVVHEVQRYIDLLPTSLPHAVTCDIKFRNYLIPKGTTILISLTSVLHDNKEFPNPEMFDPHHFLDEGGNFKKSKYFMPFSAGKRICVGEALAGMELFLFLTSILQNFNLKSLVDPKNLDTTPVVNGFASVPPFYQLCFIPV

[7] = AUC (0 to infinity) in Sprague-Dawley rat at 1 mg/kg, iv measured upto 24 hrs by LC-MS/MS analysis; type: ADME, organism-based; design: time < 24 hrs, dose 1 mg/kg, route iv; details: in vivo
[8] = Acute toxicity in 12 hr fasted female CD-1(ICR) mouse assessed as pathological damage in brain at 2 g/Kg, IG measured after 14 days by H and E staining based analysis; type: tissue-based; details: in vivo, po, 2000 mg/kg, 336 h, time 14 day
[9] = Acute toxicity in 12 hr fasted female CD-1(ICR) mouse assessed as pathological damage in lung at 2 g/Kg, IG measured after 14 days by H and E staining based analysis; type: tissue-based; details: in vivo, po, 2000 mg/kg, 336 h, time 14 day
[10] = Acute toxicity in 12 hr fasted female CD-1(ICR) mouse assessed as changes in body weight at 2 g/Kg, IG measured after 14 days; details: in vivo, po, 2000 mg/kg, 336 h, time 14 day
[11] = Acute toxicity in 12 hr fasted male CD-1(ICR) mouse assessed as pathological damage in lung at 2 g/Kg, IG measured after 14 days by H and E staining based analysis; type: tissue-based; details: in vivo, po, 2000 mg/kg, 336 h, time 14 day
[12] = MRT (0 to t) in Sprague-Dawley rat at 1 mg/kg, iv measured upto 24 hrs by LC-MS/MS analysis; type: ADME, organism-based; details: in vivo
[13] = Acute toxicity in 12 hr fasted male CD-1(ICR) mouse assessed as pathological damage in kidney at 2 g/Kg, IG measured after 14 days by H and E staining based analysis; type: tissue-based; details: in vivo, po, 2000 mg/kg, 336 h, time 14 day
[14] = target: T1, Cytochrome P450 3A4 (Homo sapiens, UniProt P08684); assay: Inhibition of CYP3A4 in human liver microsomes using midazolam as substrate incubated for 15 to 45 mins in presence of NADPH; type: ADME, Microsome
T1 sequence (P08684 whole entry): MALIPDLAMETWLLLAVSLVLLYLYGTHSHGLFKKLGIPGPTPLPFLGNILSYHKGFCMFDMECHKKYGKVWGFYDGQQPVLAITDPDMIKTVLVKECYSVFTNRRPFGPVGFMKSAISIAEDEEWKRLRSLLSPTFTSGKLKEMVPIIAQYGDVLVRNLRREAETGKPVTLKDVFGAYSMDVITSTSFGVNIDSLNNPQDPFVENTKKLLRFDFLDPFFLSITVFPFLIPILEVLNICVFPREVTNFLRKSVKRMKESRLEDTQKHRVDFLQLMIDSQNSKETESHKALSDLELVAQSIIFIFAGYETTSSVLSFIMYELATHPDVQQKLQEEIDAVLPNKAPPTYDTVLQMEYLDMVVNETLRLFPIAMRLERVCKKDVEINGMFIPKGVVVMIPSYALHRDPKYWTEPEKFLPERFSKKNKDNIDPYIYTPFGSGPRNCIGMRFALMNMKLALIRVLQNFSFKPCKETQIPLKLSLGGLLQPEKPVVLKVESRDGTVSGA

[15] = Acute toxicity in 12 hr fasted male CD-1(ICR) mouse assessed as pathological damage in brain at 2 g/Kg, IG measured after 14 days by H and E staining based analysis; type: tissue-based; details: in vivo, po, 2000 mg/kg, 336 h, time 14 day
[16] = Resistant factor, ratio of EC50 for antiviral activity against HIV-1 IIIB harboring reverse transcriptase […] mutant to EC50 for antiviral activity against wild type HIV-1 IIIB; type: functional
[17] = tested on: Human immunodeficiency virus 1; assay: Antiviral activity against wild type HIV-1 IIIB harboring reverse transcriptase […] mutant infected in human MT4 cells assessed as protection against virus-induced cytopathic effect incubated for 5 days by MTT assay; type: functional, organism-based; details: Human immunodeficiency virus 1, IIIB, MT4, 120 h
[18] = MRT (0 to infinity) in Sprague-Dawley rat at 1 mg/kg, iv measured upto 24 hrs by LC-MS/MS analysis; type: ADME, organism-based; details: in vivo
[19] = target: T1, Cytochrome P450 3A4; assay: Inhibition of CYP3A4 in human liver microsomes using testosterone as substrate incubated for 15 to 45 mins in presence of NADPH; type: ADME, Microsome
[20] = Oral bioavailability in Sprague-Dawley rat at 10 mg/kg measured upto 24 hrs by LC-MS/MS analysis; type: ADME, organism-based; details: in vivo
[21] = AUC (0 to infinity) in Sprague-Dawley rat at 10 mg/kg, po measured upto 24 hrs by LC-MS/MS analysis; type: ADME, organism-based; design: dose 10 mg/kg, time < 24 hrs, route po; details: in vivo
[22] = tested on: Human immunodeficiency virus 1; assay: Antiviral activity against wild type HIV-1 IIIB harboring reverse transcriptase Y188L mutant infected in human MT4 cells assessed as protection against virus-induced cytopathic effect incubated for 5 days by MTT assay; type: functional, organism-based; details: Human immunodeficiency virus 1, IIIB, MT4, 120 h

CONC(=O)c1cnc(Nc2ccc(C#N)cc2)nc1Oc1c(C)cc(-c2ccc(C#N)cc2)cc1C
EC50 [1]: 0.029 µM | selectivity ratio [2]: > 17400 | Activity [3]: Non-Toxic | IC50 [4]: 23.6 µM | half-life [5]: 3.66 h | IC50 [6]: 18.5 µM | AUC(0-inf) [7]: 1.17 µg·h/mL | Activity [8]: Non-Toxic | Activity [9]: Non-Toxic | Activity [10]: Non-Toxic | Activity [11]: Non-Toxic | MRT last at 24 h [12]: 3.56 h | Activity [13]: Non-Toxic | IC50 [14]: > 50 µM | Activity [15]: Non-Toxic | Ratio EC50 [16]: 5.7 | EC50 [17]: 0.013 µM | MRT inf [18]: 3.75 h | IC50 [19]: > 50 µM | bioavailability [20]: 31.2% | AUC(0-inf) [21]: 3.65 µg·h/mL | EC50 [22]: 0.052 µM
